# Patent EP2179735A1 (WORLD-TRADE IMPORT-EXPORT, WTIE, A.G., priority 2007, dated 2009)
# What was measured:
# [1] = cited from earlier work
# [2] = cited from earlier work; remark: listed apart in the source
# [3] = test system: convulsions induced (MES); assay: MES test (convulsions produced by electroshocks) in mice, drugs alone and in combination, isobolographic analysis; assay type: in vivo
# Protocol: MES test in rodents is broadly accepted as an experimental model of tonic-clonic convulsions or certain partial convulsions with or without secondary generalization. Brain concentrations were also assessed with anti-epilepsy compounds to monitor whether effects result in a pharmacodynamic and/or pharmacokinetic interaction.
# Tests were carried out in Swiss, male, adult, albine mice with a weight between 22-26 gr.
# Firstly, separately administered medicament effects were studied.
# [4] = in vivo; cited from earlier work
# [5] = CZP 20 mg/kg peritoneally, 30 minutes before MES test
# [6] = CZP 25 mg/kg peritoneally, 30 minutes before MES test
# [7] = CZP 30 mg/kg peritoneally, 30 minutes before MES test
# [8] = CZP 35 mg/kg peritoneally, 30 minutes before MES test
# [9] = CZP 40 mg/kg peritoneally, 30 minutes before MES test
# [10] = LTG 3 mg/kg peritoneally, 60 minutes before MES test
# [11] = LTG 4 mg/kg peritoneally, 60 minutes before MES test
# [12] = LTG 5 mg/kg peritoneally, 60 minutes before MES test
# [13] = LTG 6 mg/kg peritoneally, 60 minutes before MES test
# [14] = LTG 8 mg/kg peritoneally, 60 minutes before MES test
smiles,measurement,setting,value
"O=C1CN=C(c2ccccc2Cl)c2cc([N+](=O)[O-])ccc2N1 [CZP, Clonazepam]",attachment to plasma proteins,[1],85%
same,bioavailability,[2]; orally administered,90%
same,recovered in urine in unaltered form,"[2]; urine, po",Less than 0.5%
same,% (Percentage of protection against MES test),[3]; [5],12.5%
same,P/T (Number of protected animals against electroconvulsion / Total number of animals challenged with MES test),[3]; [5],1/8
same,% (Percentage of protection against MES test),[3]; [6],25%
same,P/T (Number of protected animals against electroconvulsion / Total number of animals challenged with MES test),[3]; [6],2/8
same,% (Percentage of protection against MES test),[3]; [7],50%
same,P/T (Number of protected animals against electroconvulsion / Total number of animals challenged with MES test),[3]; [7],4/8
same,% (Percentage of protection against MES test),[3]; [8],75%
same,P/T (Number of protected animals against electroconvulsion / Total number of animals challenged with MES test),[3]; [8],6/8
same,% (Percentage of protection against MES test),[3]; [9],100%
same,P/T (Number of protected animals against electroconvulsion / Total number of animals challenged with MES test),[3]; [9],8/8
"Nc1nnc(-c2cccc(Cl)c2Cl)c(N)n1 [LTG, Lamotrigine]",attachment to plasma proteins,[1],about 55%
same,removed without changes by feces,[2]; feces,2%
same,drug unalteredly removed,[2]; in vivo,10%
same,adverse event: asthenia,[4],10%
same,adverse event: ataxia,[4],11%
same,adverse event: diplopy,[4],14%
same,adverse event: generalized allergic rash,[4],2-3%
same,adverse event: headache,[4],12%
same,adverse event: skin rash,[4],3%
same,adverse event: somnolence,[4],13%
same,adverse event: vertigo,[4],14%
same,% (Percentage of protection against MES test),[3]; [10],0%
same,P/T (Number of protected animals against electroconvulsion / Total number of animals challenged with MES test),[3]; [10],0/8
same,% (Percentage of protection against MES test),[3]; [11],25%
same,P/T (Number of protected animals against electroconvulsion / Total number of animals challenged with MES test),[3]; [11],2/8
same,% (Percentage of protection against MES test),[3]; [12],50%
same,P/T (Number of protected animals against electroconvulsion / Total number of animals challenged with MES test),[3]; [12],4/8
same,% (Percentage of protection against MES test),[3]; [13],75%
same,P/T (Number of protected animals against electroconvulsion / Total number of animals challenged with MES test),[3]; [13],6/8
same,% (Percentage of protection against MES test),[3]; [14],100%
same,P/T (Number of protected animals against electroconvulsion / Total number of animals challenged with MES test),[3]; [14],8/8
